From patent publication US20060068457A1, “Substrates for tafi (a)” (priority 2002, published 2006)

Columns and labels:
TAFIa = biological target: T1, TAFIa (Homo sapiens, UniProt Q96IY4); experiment: Splitting of thiaarginine and thialysine substrates by TAFIa (DTNB chromogenic enzyme assay); type: biochemical; conditions: substrate final concentration 174 μM, TAFIa final concentration 17 μg/ml, RT, 10 min
T1 construct: purchased Enzyme Research Laboratory
T1 sequence (Q96IY4 115-423): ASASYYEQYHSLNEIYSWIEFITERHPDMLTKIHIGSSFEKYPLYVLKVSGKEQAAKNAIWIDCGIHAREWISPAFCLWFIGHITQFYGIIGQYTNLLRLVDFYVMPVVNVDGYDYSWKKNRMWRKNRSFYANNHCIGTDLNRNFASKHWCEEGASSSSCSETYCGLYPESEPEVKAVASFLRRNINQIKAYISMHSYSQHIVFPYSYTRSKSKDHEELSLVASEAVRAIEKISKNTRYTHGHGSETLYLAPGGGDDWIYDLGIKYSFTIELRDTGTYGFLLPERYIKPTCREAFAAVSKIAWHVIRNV
Text: In a first step, the substrate is hydrolyzed by TAFIa in such a way that a thioamino acid (thiaarginine or thialysine) is released. These instable intermediates are rapidly decomposed into 2-mercaptoethylguanidine or […], respectively. These mercapto compounds react with Ellman's reagent (5,5′-dithio-bis-(2-nitrobenzoic acid)), thereby releasing the strongly yellow 3-carboxy-4-nitrothiophenol that can be measured using a spectrophotometer at 405-412 nm. The free thiol content measured is directly proportional to the quantity of substrate hydrolyzed by TAFIa and thereby allows a quantitative analysis of the enzyme activity.
Enzyme assay: The enzyme activity is measured at room temperature by using a 10 mM substrate stock solution in DMSO. TAFI of human origin can be obtained in a stock solution of 360 μg/ml from Enzyme Research Laboratory or over blood plasma. Activation of TAFI to TAFIa occurred with thrombin (2.7 U/ml), the activation of which was produced with 30 μg of thrombomodulin. Excessive thrombin activity was eliminated by adding the synthetic inhibitor NAPAP. The measurement was performed on microtiter plates.
The absorption increase at 405-412 nm was recorded for 10 minutes.
in buffer (20 mM HEPES, 5 mM CaCl2, 0.01% Tween 80; pH 7.4) • incubate for 5 min at 25° C.
(§1) • measure for 10 min at RT Results: • Splitting of thiaarginine and thialysine substrates (final concentration 174 μM) by TAFIa (final concentration 17 μg/ml) • in brackets the value for carboxypeptidase B • Substances of comparison A and B from Bull. Korean. Chem. Soc. 1998, 19(2), 189-193
(§2) ΔE=Extinction variation at 405 nm

carboxypeptidase B = biological target: T2, carboxypeptidase B (Homo sapiens, UniProt P15086); experiment: Splitting of thiaarginine and thialysine substrates by carboxypeptidase B; type: biochemical; conditions: substrate final concentration 174 μM
T2 sequence (P15086 111-417): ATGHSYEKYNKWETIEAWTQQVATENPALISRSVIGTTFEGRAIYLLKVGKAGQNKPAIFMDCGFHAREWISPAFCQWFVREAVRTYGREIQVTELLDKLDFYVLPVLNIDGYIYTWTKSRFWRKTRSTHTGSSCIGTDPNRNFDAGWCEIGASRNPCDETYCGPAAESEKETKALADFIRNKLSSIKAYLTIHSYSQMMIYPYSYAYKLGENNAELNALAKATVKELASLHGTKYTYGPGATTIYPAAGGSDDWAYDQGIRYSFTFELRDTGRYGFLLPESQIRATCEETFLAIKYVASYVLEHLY
Procedure: The thiaarginine derivatives of the following formulas A and B [drawing 2] have been described as substrates for carboxypeptidase B (Bull. Korean. Chem. Soc. 1998, 19(2), 189-193). […] Detection of CPB by means of compound A is carried out according to the following FIG. 1. [drawing]
as §1, §2

| Compound | ΔE/min (extinction variation at 405 nm), splitting by TAFIa (TAFIa) | ΔE/min (extinction variation at 405 nm), value in brackets for carboxypeptidase B (carboxypeptidase B) |
| --- | --- | --- |
| Cl.NC(N)=NCCSC(NC(=O)[C@H](CCCCNC(=O)OCc1ccccc1)NC(=O)c1ccccc1)C(=O)O (stereo partly drawn) [No. 4269, benzoyl-(L)-lysyl-(E-benzyloxycarbonyl)-α-(D, L)-(2-guanidinoethylthio)-glycine hydrochloride salt] | 0.108 | (0.018) |
| NCCCSC(NC(=O)[C@H](CCCCNC(=O)OCc1ccccc1)NC(=O)c1ccccc1)C(=O)O.O=C(O)C(F)(F)F (stereo partly drawn) [No. 4339, benzoyl-(L)-lysyl-(F-benzyloxycarbonyl)-α-(D,L)-(3-aminopropylthio)-glycine trifluoracetic acid salt] | 0.055 | – |
| Boc-F-K(Boc)-G(GUS)-OH × HCl [No. 4298] | 0.043 | (0.034) |
| Boc-K(Tos)-G(GUS)-OH × HCl [No. 4273] | 0.014 | (0.048) |
| Boc-K(Z)-G(GUS)-OH × TFA [No. 4275] | 0.041 | (0.028) |
| Boc-K(Z)-G(α-SPrA)-OH × TFA [No. 4341] | 0.054 | – |
| Bz-P-K(Boc)-G(GUS)-OH × TFA [No. 4300] | 0.012 | (0.072) |
| Bz-V-G(GUS)-OH × TFA [No. 4334] | 0.034 | – |
| Bz-V-G(α-SPrA)-OH × TFA [No. 4336] | 0.053 | – |
| Z-A-K(Boc)-G(GUS)-OH × HCl [No. 4302] | 0.042 | (0.059) |
